Blank lines part the entries; values can stand above or below the sequence they belong to.
Columns and labels:
Assay in all cases: pTyr-Var library bacterial peptide display kinase screen (enrichment scores)
c-Abl kinase domain = molecular target: T1, c-Abl kinase domain (Mus musculus, UniProt P00520); type: biochemical;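 further: log2 fold change in enrichment of variant over reference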
T1 sequence (P00520 242-493 limits assumed): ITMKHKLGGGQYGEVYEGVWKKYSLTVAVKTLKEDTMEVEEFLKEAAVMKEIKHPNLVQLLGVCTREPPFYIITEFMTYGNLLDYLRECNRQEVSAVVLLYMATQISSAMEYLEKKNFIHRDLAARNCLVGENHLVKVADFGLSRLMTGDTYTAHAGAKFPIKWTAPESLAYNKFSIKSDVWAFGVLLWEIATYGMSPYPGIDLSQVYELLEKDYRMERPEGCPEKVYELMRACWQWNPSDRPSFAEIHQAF

EPHB1 kinase domain = type: biochemical, human; conditions: for Screen (variant relative to reference peptide, measured in the pTyr-Var library screen): sheet "EPHB1", variant seq vs reference seq, bacterial peptide display enrichment; for Screen: sheet EPHB1, effect of the variant peptide relative to its reference peptide in the pTyr-Var library screen (enrichment scores)
Fer kinase domain = type: biochemical, mouse; conditions: sheet "Fer"
c-Src kinase domain = c-Src kinase domain (Homo sapiens, UniProt P12931); type: biochemical; conditions: sheet "Src";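 further: log2 fold change in enrichment of variant over reference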
EPHB2 kinase domain = type: biochemical, human; conditions: sheet EPHB2; effect of variant peptide relative to its reference peptide in the pTyr-Var library screen (enrichment scores)
[1] = fig5-data2, sheet "Abl", Screen for the variant/reference peptide pair, pTyr-Var library
[2] = sheet "Abl", effect of variant peptide relative to its reference peptide in pTyr-Var library screen (enrichment)
[3] = value of the variant peptide against its reference peptide in the pTyr-Var library screen with Fer
[4] = effect of the variant peptide relative to its reference peptide in the pTyr-Var library screen
[5] = variant peptide versus its reference peptide in the pTyr-Var library screen
[6] = variant peptide relative to its reference peptide, pTyr-Var library screen enrichment

Sequence: DKATEYIQFVR [MAX_Y70_M74V_YF]
- Screen (c-Abl kinase domain; [1]): 0.6462

Sequence: LTERSYSFVTT [ACTA1_Y200_G199S]
- Screen (c-Abl kinase domain; [1]): 0.4799
- Screen (Fer kinase domain; [3]): 1.792

Sequence: FRRITYFNWRH [PDE6B_Y556_H557Y_YF]
- Screen (c-Abl kinase domain; [1]): 1.003

Sequence: KEKLCYVAPDF [ACTA1_Y220_L223P]
- Screen (c-Src kinase domain; [4]): -1.653

Sequence: RPPFTYATLIH [FOXP3_Y342_R347H]
- Screen (c-Src kinase domain; [4]): 0.0554
- Screen (EPHB1 kinase domain): 0.127

Sequence: EVDETYVPKKF [ALB_Y521_E525K]
- Screen (c-Abl kinase domain; [1]): 0.9455

Sequence: RRIHSYRGQLW [VHL_Y112_H115Q]
- Screen (c-Src kinase domain; [5]): -2.232
- Screen (variant relative to reference peptide, measured in the pTyr-Var library screen) (EPHB1 kinase domain): -1.797

Sequence: RVLHNYLVWCV [ECEL1_Y400_R404C]
- Screen (EPHB1 kinase domain): -0.3702

Sequence: RLNCIYFKDQT [RS1_Y165_W163C_YF]
- Screen (c-Abl kinase domain; [1]): 0.3384

Sequence: ASPKSYPSQKH [CAP2_Y316_T311A]
- Screen (c-Abl kinase domain; [1]): 0.389

Sequence: VWALTYCDLHK [KCNH2_Y827_R823W]
- Screen (EPHB1 kinase domain): 1.577

Sequence: RSHRSYSCQVM [IGLL1_Y192_R189H]
- Screen (c-Abl kinase domain; [1]): -0.4092

Sequence: IRSGIYFKPES [L2HGDH_Y102_H98R_YF]
- Screen (c-Src kinase domain; [4]): -1.512

Sequence: EWCSPYGLTPR [GRIN3B_Y601_R598C]
- Screen (c-Src kinase domain; [4]): 1.62

Sequence: IGERTYGQVFK [CDK13_Y716_G714R_YF]
- Screen (c-Src kinase domain; [4]): -0.5578

Sequence: FSCLPYRRLAF [SLC52A2_Y305_G306R_YF]
- Screen (c-Src kinase domain; [5]): -1.493

Sequence: QQMGTYGVRAA [ICAM2_Y260_R256Q]
- Screen (c-Src kinase domain; [4]): 0.6458

Sequence: EIASHYRHLLR [ZBTB46_Y14_T11A]
- Screen (c-Abl kinase domain; [2]): -2.772

Sequence: PKSWNYELPAT [PROM1_Y34_A31S]
- Screen (EPHB1 kinase domain): 0.9154
- Screen (EPHB2 kinase domain): 0.6095

Sequence: HRGCLYLAIEF [TEK_Y899_Y897C_YF]
- Screen (EPHB2 kinase domain): 0.2155

Sequence: KHCEDYVFSFN [DSC1_Y846_C848F_YF]
- Screen (c-Src kinase domain; [4]): 1.064

Sequence: FTFNSYFMHWV [IGHV1-46_Y51_T49N_YF]
- Screen (Fer kinase domain; [3]): 1.775

Sequence: ESAAIYNPVIF [RHO_Y301_K296E_YF]
- Screen (c-Src kinase domain; [5]): 0.5635
- Screen (Fer kinase domain; [6]): 0.08101

Sequence: IDPFTYTPFGS [CYP3A4_Y432_I431T_YF]
- Screen (c-Src kinase domain; [4]): -1.161
- Screen (Fer kinase domain; [3]): -1.49

Sequence: IVRSLYEDPED [VHL_Y185_L188P]
- Screen (c-Abl kinase domain; [2]): -2.672

Sequence: QRHFVYFFSFL [PTEN_Y176_R173H_YF]
- Screen (Fer kinase domain; [3]): 0.1451

Sequence: PLGPLYASSNT [INSR_Y992_P997T]
- Screen (Fer kinase domain; [3]): -0.7776

Sequence: PRLMLYNPTTF [EGFR_Y270_P266R_YF]
- Screen (c-Abl kinase domain; [1]): -1.245

Sequence: SVTFTYSPALN [TP53_Y126_C124Y_YF]
- Screen (c-Abl kinase domain; [2]): 1.264

Sequence: RALCHYFKLNI [ETV6_Y401_R399C_YF]
- Screen (c-Abl kinase domain; [1]): 0.924

Sequence: LPKDLYLISQM [LARP4_Y141_S137P]
- Screen (EPHB1 kinase domain): -0.9052

Sequence: LDFNEYFRFLN [HPRT1_Y198_D201Y_YF]
- Screen (c-Src kinase domain; [4]): 2.939

Sequence: DPLLTYLFPPK [LMNA_Y481_R482L]
- Screen (c-Src kinase domain; [4]): 2.327

Sequence: RGRSTYFWPSP [GAGE12J_Y9_R13S_YF]
- Screen (c-Abl kinase domain; [1]): 0.4744

Sequence: PQDVTYARLHS [LILRB4_Y412_Q414R]
- Screen (c-Src kinase domain; [4]): -0.3004
- Screen (c-Abl kinase domain; [1]): -1.045

Sequence: ENKGVYVPMSG [IVD_Y277_L279P]
- Screen (c-Abl kinase domain; [1]): -1.069

Next, values leading:

- Screen (c-Abl kinase domain; [2]): -3.682
- Screen (variant relative to reference peptide, measured in the pTyr-Var library screen) (EPHB1 kinase domain): 1.233
Sequence: TGFRPYVCPFD [YY1_Y383_D380Y_YF]

- Screen (c-Abl kinase domain; [1]): 0.133
Sequence: LEIETYPRLLD [KRT12_Y429_R430P]

- Screen (c-Abl kinase domain; [1]): -0.1285
Sequence: KRIETYFSKNF [PLP1_Y50_L46R_YF]

- Screen (c-Abl kinase domain; [1]): -2.084
Sequence: DPEGAYTTRGG [EPHA3_Y779_A777G]

- Screen (Fer kinase domain; [6]): 0.9219
Sequence: FVTSMYNEILI [TRPV1_Y310_M315I]

- Screen (EPHB2 kinase domain): -1.376
Sequence: LEQGEYALRSH [HADHB_Y244_D242G]

- Screen (c-Abl kinase domain; [2]): -1.428
Sequence: KPGVNYFFQVS [TTN_Y28165_R28168Q_YF]

- Screen (c-Abl kinase domain; [1]): -0.7051
Sequence: DVRQEYSGMIL [PLXND1_Y616_P617S]

- Screen (c-Abl kinase domain; [1]): 1.302
Sequence: GFKVRYATGSI [FGFR1_Y210_W213G_YF]

- Screen (variant relative to reference peptide, measured in the pTyr-Var library screen) (EPHB1 kinase domain): -1.855
Sequence: PEVSGYCHFAD [TG_Y234_C237Y_YF]

- Screen (c-Abl kinase domain; [1]): -1.469
Sequence: REGAKYVSHCA [ASS1_Y113_G117C]

- Screen (c-Abl kinase domain; [2]): -2.688
Sequence: LEPGIYIPEDD [XPNPEP3_Y455_I450L]

- Screen (c-Abl kinase domain; [2]): 0.1881
Sequence: LLKMMYLMLDN [STAT1_Y203_K201M]

- Screen (c-Abl kinase domain; [1]): -2.042
Sequence: KGEDFYCVTRH [FHL1_Y149_C153R]

- Screen (c-Abl kinase domain; [2]): -0.3891
Sequence: KDHPDYKFQRR [SOX10_Y171_P175R_YF]
